Reference: PubChem BioAssay (NCI)
Several values for one entry are separate records, joined by “and”; a condition that tells them apart may be missing. Identical values can stand only once.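 Results reflect a 48-hour exposure of cells in 96-well plates to compound at five concentrations. Abbreviation: GI50, concentration required for 50% inhibition of growth. TGI: total growth inhibition.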

What was measured:
Experiment in all cases: growth of human tumour cells (NCI), 48 h
COLO 205 colon = system: COLO 205 colon
HOP-62 NSCLC = system: HOP-62 NSCLC
UACC-62 melanoma = system: UACC-62 melanoma
K-562 leukemia = system: K-562 leukemia
BT-549 breast = system: BT-549 breast
ACHN renal = system: ACHN renal
SNB-19 CNS = system: SNB-19 CNS
SK-MEL-2 melanoma = system: SK-MEL-2 melanoma
HL-60(TB) leukemia = system: HL-60(TB) leukemia
SR leukemia = system: SR leukemia

## O=c1c2c3c(sc2n2c(-c4cc(-c5ccccc5)nn4-c4ccccc4)nnc2n1Cc1ccccc1)CCCC3
COLO 205 colon
  GI50: > 100 µM
  TGI: > 100 µM
HOP-62 NSCLC
  GI50: > 100 µM
  TGI: > 100 µM
UACC-62 melanoma
  GI50: > 100 µM
  TGI: > 100 µM
K-562 leukemia
  GI50: > 100 µM
  TGI: > 100 µM
BT-549 breast
  GI50: > 100 µM
  TGI: > 100 µM
ACHN renal
  GI50: > 100 µM
  TGI: > 100 µM
SNB-19 CNS
  GI50: > 100 µM
  TGI: > 100 µM
SK-MEL-2 melanoma
  GI50: > 100 µM
  TGI: > 100 µM

## NC(N)=NS(=O)(=O)c1ccc(NC(=O)c2cccc3c(Nc4ccc(S(N)(=O)=O)cc4)c4ccccc4nc23)cc1
COLO 205 colon
  TGI: > 100 µM
HOP-62 NSCLC
  TGI: > 100 µM
UACC-62 melanoma
  TGI: > 100 µM
K-562 leukemia
  TGI: > 100 µM
ACHN renal
  TGI: > 100 µM
SNB-19 CNS
  TGI: > 100 µM
SK-MEL-2 melanoma
  TGI: > 100 µM

## N=S(c1ccccc1)c1ccccc1[N+](=O)[O-] (stereo unspecified)
COLO 205 colon
  TGI: 34 µM
HL-60(TB) leukemia
  TGI: 36.5 µM
HOP-62 NSCLC
  TGI: 52.6 µM
UACC-62 melanoma
  TGI: 36.2 µM
K-562 leukemia
  TGI: 45 µM
SR leukemia
  TGI: 50.1 µM
ACHN renal
  TGI: 31 µM
SNB-19 CNS
  TGI: 35.2 µM
SK-MEL-2 melanoma
  TGI: 67.7 µM

## O=C(NC12CC3CC(CC(C3)C1)C2)C(=O)c1c[nH]c2ccc(Cl)cc12
COLO 205 colon
  TGI: > 100 µM
HL-60(TB) leukemia
  TGI: > 100 µM
HOP-62 NSCLC
  TGI: 66.2 µM
UACC-62 melanoma
  TGI: > 100 µM
K-562 leukemia
  TGI: > 100 µM
SR leukemia
  TGI: > 100 µM
ACHN renal
  TGI: > 100 µM
SNB-19 CNS
  TGI: > 100 µM
SK-MEL-2 melanoma
  TGI: 89.4 µM

## CCOC(=O)/C(=C/c1cccc(OC)c1)N(CC)CC
COLO 205 colon
  TGI: > 100 µM
HL-60(TB) leukemia
  TGI: > 100 µM
HOP-62 NSCLC
  TGI: > 100 µM
UACC-62 melanoma
  TGI: > 100 µM
K-562 leukemia
  TGI: > 100 µM
SR leukemia
  TGI: > 100 µM
ACHN renal
  TGI: > 100 µM
SNB-19 CNS
  TGI: > 100 µM
SK-MEL-2 melanoma
  TGI: > 100 µM

## Cl[Si]1(Cl)Oc2ccccc2O[Si](Cl)(Cl)Oc2ccccc2O1
COLO 205 colon
  TGI: 59.7 µM
HL-60(TB) leukemia
  TGI: 4.63 µM
HOP-62 NSCLC
  TGI: > 100 µM
UACC-62 melanoma
  TGI: 20.9 µM
K-562 leukemia
  TGI: 40.9 µM
ACHN renal
  TGI: > 100 µM
SNB-19 CNS
  TGI: > 100 µM
SK-MEL-2 melanoma
  TGI: 73.8 µM

## CCOC1Oc2ccccc2-c2oc(=O)c(Sc3ccc(C)cc3)cc21 (stereo unspecified)
COLO 205 colon
  GI50: 25.2 µM
  TGI: > 100 µM
HL-60(TB) leukemia
  GI50: 8.98 µM
  TGI: 60.5 µM
HOP-62 NSCLC
  GI50: 58.5 µM
  TGI: > 100 µM
UACC-62 melanoma
  GI50: 17.9 µM
  TGI: > 100 µM
K-562 leukemia
  GI50: 15.4 µM
  TGI: > 100 µM
BT-549 breast
  GI50: 29.5 µM
  TGI: > 100 µM
ACHN renal
  GI50: 28.8 µM
  TGI: > 100 µM
SNB-19 CNS
  GI50: 29.1 µM
  TGI: > 100 µM
SK-MEL-2 melanoma
  GI50: 49.4 µM
  TGI: > 100 µM

## Cc1ccc(S(=O)(=O)N/N=C(\c2nc3ccc([N+](=O)[O-])cc3[nH]c2=O)C(O)c2ccccc2Cl)cc1 (stereo unspecified)
COLO 205 colon
  TGI: > 100 µM
HL-60(TB) leukemia
  TGI: > 100 µM
HOP-62 NSCLC
  TGI: > 100 µM
UACC-62 melanoma
  TGI: > 100 µM
K-562 leukemia
  TGI: > 100 µM
SR leukemia
  TGI: > 100 µM
ACHN renal
  TGI: > 100 µM
SNB-19 CNS
  TGI: > 100 µM
SK-MEL-2 melanoma
  TGI: > 100 µM

## CC(C)c1ccccc1NC(=O)/C(Cl)=C1/Sc2ccccc2NC1=O
COLO 205 colon
  TGI: 74.6 µM
HL-60(TB) leukemia
  TGI: 52.6 µM
HOP-62 NSCLC
  TGI: > 100 µM
UACC-62 melanoma
  TGI: > 100 µM
K-562 leukemia
  TGI: > 100 µM
ACHN renal
  TGI: > 100 µM
SNB-19 CNS
  TGI: > 100 µM
SK-MEL-2 melanoma
  TGI: 37.8 µM

## Cn1cc(-c2csc(-c3cn(C)c4ccccc34)n2)c2cnccc21
HL-60(TB) leukemia
  GI50: 1.94 µM
  TGI: 4.09 µM
HOP-62 NSCLC
  GI50: 1.67 µM
  TGI: 3.85 µM
UACC-62 melanoma
  GI50: 1.72 µM
  TGI: 3.25 µM
BT-549 breast
  GI50: 1.68 µM
  TGI: 3.09 µM
ACHN renal
  GI50: 1.8 µM
  TGI: 3.19 µM
SNB-19 CNS
  GI50: 1.76 µM
  TGI: 3.28 µM
SK-MEL-2 melanoma
  GI50: 2 µM
  TGI: 3.7 µM

## CCOC(=O)c1ccc(N[C@@H]2c3cc4c(cc3C(C3=CC(=O)C(=O)C(OC)=C3)[C@H]3C(=O)OCC32)OCO4)cc1 (stereo partly specified)
COLO 205 colon
  TGI: 28.3 µM
HL-60(TB) leukemia
  TGI: > 19.7 µM
HOP-62 NSCLC
  TGI: 1.66 µM
UACC-62 melanoma
  TGI: 7.69 µM
K-562 leukemia
  TGI: > 69.4 µM
ACHN renal
  TGI: 3.86 µM
SNB-19 CNS
  TGI: 42 µM
SK-MEL-2 melanoma
  TGI: 6.08 µM

## COC1OC(C)C(OCc2ccccc2)C(OS(=O)(=O)c2ccc(C)cc2)C1OS(=O)(=O)c1ccc(C)cc1 (stereo unspecified)
COLO 205 colon
  TGI: > 100 µM
HL-60(TB) leukemia
  TGI: > 100 µM
HOP-62 NSCLC
  TGI: > 100 µM
K-562 leukemia
  TGI: > 100 µM
SR leukemia
  TGI: > 100 µM
ACHN renal
  TGI: > 100 µM
SNB-19 CNS
  TGI: > 100 µM
SK-MEL-2 melanoma
  TGI: > 100 µM

## Cc1c(C(=O)CSc2nc3ccccc3c(=O)n2-c2ccccc2)c(=O)n(-c2ccccc2)n1C
COLO 205 colon
  TGI: > 100 µM
HL-60(TB) leukemia
  TGI: > 100 µM
HOP-62 NSCLC
  TGI: 69.1 µM
SR leukemia
  TGI: > 100 µM
ACHN renal
  TGI: > 100 µM
SNB-19 CNS
  TGI: > 100 µM
SK-MEL-2 melanoma
  TGI: > 100 µM

## COc1cccc(/C=C2\CCC(C)(CN(C)C)C2=O)c1 (stereo unspecified)
COLO 205 colon
  TGI: > 100 µM
HOP-62 NSCLC
  TGI: > 100 µM
UACC-62 melanoma
  TGI: > 100 µM
K-562 leukemia
  TGI: > 100 µM
SR leukemia
  TGI: > 100 µM
ACHN renal
  TGI: > 100 µM
SNB-19 CNS
  TGI: > 100 µM
SK-MEL-2 melanoma
  TGI: > 100 µM

## O=C1C=C(O)c2[nH]c(=O)ccc2C1=O
COLO 205 colon
  TGI: > 100 µM
HL-60(TB) leukemia
  TGI: > 100 µM
HOP-62 NSCLC
  TGI: > 100 µM
UACC-62 melanoma
  TGI: > 100 µM
K-562 leukemia
  TGI: > 100 µM
SR leukemia
  TGI: > 100 µM
ACHN renal
  TGI: > 100 µM
SNB-19 CNS
  TGI: > 100 µM

## Cc1nnc(N/N=C(/C(=O)C(C#N)c2ccccc2)C(C#N)c2ccccc2)n1N (stereo unspecified)
COLO 205 colon
  TGI: 14 µM
HL-60(TB) leukemia
  TGI: 57.8 µM
HOP-62 NSCLC
  TGI: > 100 µM
UACC-62 melanoma
  TGI: > 62.6 µM
K-562 leukemia
  TGI: 27.9 µM
SR leukemia
  TGI: > 100 µM
ACHN renal
  TGI: 65.5 µM
SNB-19 CNS
  TGI: > 100 µM
SK-MEL-2 melanoma
  TGI: 12.5 µM

## COC(=O)/C(C#N)=C1\CCC(C(=O)OC)N1C (stereo unspecified)
COLO 205 colon
  TGI: > 100 µM
HL-60(TB) leukemia
  TGI: > 100 µM
HOP-62 NSCLC
  TGI: > 100 µM
UACC-62 melanoma
  TGI: > 100 µM
K-562 leukemia
  TGI: > 100 µM
SR leukemia
  TGI: > 100 µM
SNB-19 CNS
  TGI: > 100 µM
SK-MEL-2 melanoma
  TGI: > 100 µM

## Cc1ccc2nc3c(Cl)c(C)c(=O)cc-3sc2c1
COLO 205 colon
  GI50: > 100 µM
  TGI: > 100 µM
HL-60(TB) leukemia
  TGI: > 100 µM
HOP-62 NSCLC
  GI50: 47.8 µM
  TGI: > 100 µM
UACC-62 melanoma
  GI50: 27.8 µM
  TGI: > 1 µM and 92.2 µM
K-562 leukemia
  TGI: > 100 µM
ACHN renal
  GI50: 39.7 µM
  TGI: > 100 µM
SNB-19 CNS
  GI50: > 100 µM
  TGI: > 100 µM
SK-MEL-2 melanoma
  GI50: 51.1 µM
  TGI: > 100 µM

## CC1=C(C(=O)Nc2ccccc2C)C(/C=C/c2ccccc2)C(C(=O)Nc2ccccc2C)=C(C)N1
COLO 205 colon
  TGI: > 100 µM
HL-60(TB) leukemia
  TGI: > 100 µM
HOP-62 NSCLC
  TGI: > 100 µM
UACC-62 melanoma
  TGI: > 100 µM
K-562 leukemia
  TGI: > 100 µM
ACHN renal
  TGI: > 100 µM
SNB-19 CNS
  TGI: > 100 µM
SK-MEL-2 melanoma
  TGI: > 100 µM

## CC(CC(=O)Nc1ccc(NC(=O)CC(C)N=NC(N)=S)cc1)N=NC(N)=S (stereo unspecified)
COLO 205 colon
  TGI: > 100 µM
HL-60(TB) leukemia
  TGI: > 100 µM
HOP-62 NSCLC
  TGI: > 100 µM
UACC-62 melanoma
  TGI: > 100 µM
K-562 leukemia
  TGI: > 100 µM
SR leukemia
  TGI: > 100 µM
ACHN renal
  TGI: > 100 µM
SNB-19 CNS
  TGI: > 100 µM
SK-MEL-2 melanoma
  TGI: > 100 µM

## C[C@H]1[C@H](C)CC[C@]2(C(=O)NCCNCCN)CC[C@]3(C)C(=CC[C@@H]4[C@@]5(C)CCC(=O)C(C)(C)[C@@H]5CC[C@]43C)[C@H]12
UACC-62 melanoma
  GI50: 1.6 µM
  TGI: 2.96 µM
K-562 leukemia
  GI50: 2.23 µM
  TGI: 5.35 µM
BT-549 breast
  GI50: 6.45 µM
  TGI: 24.1 µM
ACHN renal
  GI50: 1.76 µM
  TGI: 3.27 µM
SNB-19 CNS
  GI50: 1.67 µM
  TGI: 3.11 µM
SK-MEL-2 melanoma
  GI50: 1.98 µM
  TGI: 4.29 µM
